Marks after values point to notes of the source that are not given here.
Columns and labels:
Assay type in all cases: cell-based
RCC4 cells = assay: RT-qPCR of p53 targets, RCC4 cells; parameters: CDKN1A expression / MDM2 expression / GADD45A expression / PUMA expression / NOXA expression: reference not given here; details: 24 h; for CDKN1A expression / GADD45A expression / MDM2 expression / NOXA expression / PUMA expression: 100 μM
Experimental: Lysates were analyzed by immunoblots. c RCC4 cells with or without p53 KO were transfected with vector or Flag-PBRM1 at the indicated amounts. […] Cells were harvested for RT-qPCR (g) or ChIP followed by qPCR (h). […] Representative data is shown in i. Quantification of cell cycle phase is shown in j. Source data are provided as a Source Data file.
Total RNA was extracted from cells using the RNeasy Plus Mini Kit (74136, Qiagen), and the concentration was measured using the NanoDrop ND-1000 system (Thermo Scientific). Reverse transcription was performed using the First Strand cDNA Synthesis Kit (NP100042, Origen) with 0.5 µg total RNA. Real-time PCR was performed with Maxima SYBR Green qPCR Master Mix (K0253, Thermo Scientific) using the Roche LightCycler 480. […] GAPDH was used as an internal control. Data are shown as mean ± SEM for three independent experiments.

ACHN cells = assay: Cell cycle analysis, ACHN shRNA knockdown cells; parameters: Sub-G1: unit not given here; details: 50 μM
Experimental: Lysates were analyzed via immunoblots. f, g, h. ACHN control, p53 and p21 shRNA knockdown cells were harvested for […]
Representative data is shown i n g. […] Source data are provided as a Source

endogenous PBRM1 and p53 = assay: Endogenous p53 immunoprecipitation, kidney cancer cell lines; details: ACHN, Caki-1 and Ren-01; 50 μM, 8 h
Experimental: For endogenous p53 immunoprecipitations, cell pellets were lysed in EBC buffer with protease and phosphatase inhibitors, 2 μM TSA and 10 mM NAM. Lysates (approximately 2 mg of total protein) were incubated with 2 μg p53 antibody (DO-1) overnight at 4 °C followed by incubation with protein A/G plus Sepharose (sc-2003, Santa Cruz Biotechnology) for 2 h. Beads were washed with EBC buffer four times, mixed with 1X SDS loading buffer (1% mercaptoethanol, 0.01% Bromophenol blue, 6% Glycerol, 2% SDS, 50 mM Tris-Cl (pH 6.8)) and analyzed by SDS-PAGE and immunoblot.
Supplementary Figure 1. Endogenous PBRM1 and p53 physically associate in kidney […]
μM) for 8 h and harvested for immunoprecipitation with control IgG and p53 antibodies. The bound PBRM1 and p53 were examined by immunoblots. Source data are provided as a Source […]
(1 picture or pasted object on this page, not shown here)

## COc1cc([C@@H]2c3cc4c(cc3[C@@H](O[C@@H]3O[C@@H]5CO[C@@H](C)O[C@H]5[C@H](O)[C@H]3O)[C@H]3COC(=O)[C@H]23)OCO4)cc(OC)c1O [Etoposide]
RCC4 cells; 100 μM etoposide, RCC4
  expression of p53 downstream targets with PBRM1 restoration: up-regulated by restoration of PBRM1 but not PBRM1 BD4*
RCC4 cells; RCC4-GFP, assay 1
  CDKN1A expression: 49.6546
  GADD45A expression: 6.5687
  MDM2 expression: 12.9102
  NOXA expression: 7.6934
  PUMA expression: 10.0905
RCC4 cells; RCC4-GFP, assay 2
  CDKN1A expression: 44.3116
  GADD45A expression: 5.0617
  MDM2 expression: 12.821
  NOXA expression: 9.2403
  PUMA expression: 12.0208
RCC4 cells; RCC4-GFP, assay 3
  CDKN1A expression: 55.0506
  GADD45A expression: 5.7956
  MDM2 expression: 12.4332
  NOXA expression: 9.8148
  PUMA expression: 9.8829
RCC4 cells; RCC4-PBRM1-BD4*, assay 1
  CDKN1A expression: 45.9041
  GADD45A expression: 6.7644
  MDM2 expression: 11.4101
  NOXA expression: 9.833
  PUMA expression: 10.713
RCC4 cells; RCC4-PBRM1-BD4*, assay 2
  CDKN1A expression: 43.4526
  GADD45A expression: 6.5588
  MDM2 expression: 13.589
  NOXA expression: 9.0815
  PUMA expression: 12.1902
RCC4 cells; RCC4-PBRM1-BD4*, assay 3
  CDKN1A expression: 51.1258
  GADD45A expression: 6.6252
  MDM2 expression: 12.0244
  NOXA expression: 9.5044
  PUMA expression: 12.2164
RCC4 cells; RCC4-PBRM1, assay 1
  CDKN1A expression: 70.754
  GADD45A expression: 7.8588
  MDM2 expression: 16.2786
  NOXA expression: 11.5749
  PUMA expression: 13.0108
RCC4 cells; RCC4-PBRM1, assay 2
  CDKN1A expression: 72.9408
  GADD45A expression: 6.8115
  MDM2 expression: 15.8174
  NOXA expression: 11.4155
  PUMA expression: 15.9071
RCC4 cells; RCC4-PBRM1, assay 3
  CDKN1A expression: 96.454
  GADD45A expression: 7.8052
  MDM2 expression: 16.0682
  NOXA expression: 13.296
  PUMA expression: 14.8041
ACHN cells; ACHN-sh-PBRM1#1, assay 1
  G0/G1: 10.9
  G2/M: 66.9
  S: 15.8
  Sub-G1: 5.5
ACHN cells; ACHN-sh-PBRM1#1, assay 2
  G0/G1: 15.3
  G2/M: 36.8
  S: 33.9
  Sub-G1: 12.3
ACHN cells; ACHN-sh-PBRM1#1, assay 3
  G0/G1: 16.9
  G2/M: 39.4
  S: 35.3
  Sub-G1: 6.8
ACHN cells; ACHN-sh-PBRM1#2, assay 1
  G0/G1: 50.7
  G2/M: 29.4
  S: 17.3
  Sub-G1: 1.2
ACHN cells; ACHN-sh-PBRM1#2, assay 2
  G0/G1: 45.9
  G2/M: 20.7
  S: 26.7
  Sub-G1: 5
ACHN cells; ACHN-sh-PBRM1#2, assay 3
  G0/G1: 48.7
  G2/M: 22.6
  S: 24.8
  Sub-G1: 1.6
ACHN cells; ACHN-sh-SCR, assay 1
  G0/G1: 54.8
  G2/M: 26.5
  S: 16.1
  Sub-G1: 1.5
ACHN cells; ACHN-sh-SCR, assay 2
  G0/G1: 51.3
  G2/M: 21.3
  S: 25.2
  Sub-G1: 1.4
ACHN cells; ACHN-sh-SCR, assay 3
  G0/G1: 43.6
  G2/M: 27
  S: 25.3
  Sub-G1: 2.1
ACHN cells; ACHN-sh-p21#1, assay 1
  G0/G1: 40.5
  G2/M: 38.3
  S: 18.7
  Sub-G1: 1.3
ACHN cells; ACHN-sh-p21#1, assay 2
  G0/G1: 47.7
  G2/M: 23.1
  S: 27.2
  Sub-G1: 1
ACHN cells; ACHN-sh-p21#1, assay 3
  G0/G1: 48.6
  G2/M: 22.6
  S: 26
  Sub-G1: 0.8
ACHN cells; ACHN-sh-p21#2, assay 1
  G0/G1: 14.3
  G2/M: 65.7
  S: 15.1
  Sub-G1: 4
ACHN cells; ACHN-sh-p21#2, assay 2
  G0/G1: 11.9
  G2/M: 48.4
  S: 31.1
  Sub-G1: 6.9
ACHN cells; ACHN-sh-p21#2, assay 3
  G0/G1: 14.7
  G2/M: 42.4
  S: 35.8
  Sub-G1: 5.3
ACHN cells; ACHN-sh-p53, assay 1
  G0/G1: 6.3
  G2/M: 68.3
  S: 16.5
  Sub-G1: 6.2
ACHN cells; ACHN-sh-p53, assay 2
  G0/G1: 11.6
  G2/M: 30
  S: 34.2
  Sub-G1: 20.3
ACHN cells; ACHN-sh-p53, assay 3
  G0/G1: 10.6
  G2/M: 39
  S: 34.6
  Sub-G1: 11.3
Endogenous PBRM1 and p53
  endogenous PBRM1 associated with endogenous p53: increased endogenous p53 associated with more endogenous PBRM1

— paper PMC6925188, “PBRM1 acts as a p53 lysine-acetylation reader to suppress renal tumor growth” (Nature Communications, 2019)
